Assay: in vivo delivery of bremelanotide by oral capsules (rats)
Design: species or system rat
Settings: oral capsules with patches, FIG. 8
Description: The capsules of Examples 4-15 and Control 2, described above, were tested in vivo in a rat model. Capsules were administered by oral gavage administration using a dosing tool, followed by administration of 0.3 mL of water. Blood samples were drawn until 5 hours after administration and assayed for bremelanotide concentration as a function of time. FIGS. 5-8 illustrate the blood levels (pg/ml) of bremelanotide achieved (reported as the average from n=2 or 3 rats per formulation tested). […] The results illustrated in FIGS. 6 and 7 indicate that increasing the relative amount of penetration enhancer results in increased bremelanotide delivery.

With CCCCCCCCCCCCO[C@@H]1O[C@H](CO)[C@@H](O[C@H]2O[C@H](CO)[C@@H](O)[C@H](O)[C@H]2O)[C@H](O)[C@H]1O [n-DMS, n-dodecyl-β-D-maltoside] as the compound, how does the “enhancer effect for bremelanotide through the GI tract” value read?
The value was “effective enhancers”.

Source: patent US20180185440A1, “PHARMACEUTICAL COMPOSITIONS AND METHODS FOR DELIVERY OF BREMELANOTIDE” (NOVEN PHARMACEUTICALS, INC., priority 2016, published 2018)
